# Assay results: patent US5607967A, “Treatment of alzheimer's disease with 5-(tetradecyloxy)-2-furan carboxylic acid” (Merck & Co., Inc., priority 1994, dated 1997)
# Experiments:
# [1] = system: MMTV-luciferase reporter gene; assay: Luciferase expression in cells transfected only with the MMTV-luciferase reporter gene; format: cell-based; details: no receptor transfected
# Method: (§3) Transient transfection of COS and CV1 cells was performed as described (Schmidt 1992). Cells were plated (1.5×10^5 in 1 mL) into 12 well dishes in phenol red-free medium supplemented with activated charcoal treated fetal calf serum. The next day 0.12 mL of DNA 10 μg/ml (5 μg receptor DNA and 5 μg reporter plasmid), as a calcium phosphate precipitate, was added to the cells. Ligands were added to the cells 30 minutes after transfection. The next day (18 hours), the cells were washed and fresh ligands added. Twenty-four hours later, cell extracts were prepared and assayed for luciferase enzyme activity using the luciferase assay system (Promega Madison, Wis.). Each transfection was performed in triplicate and the luciferase activity of each sample measured in duplicate using the AutoClinilumat (Berthold Nashua, N.H.).
# [2] = system: GR/NER chimeric receptor; assay: Ligand dependent transcription assay, GR/NER chimeric receptor with MMTV-luciferase reporter; format: cell-based, human
# Method: To search for putative ligands for the NER receptor, the chimeric receptor GR/NER was prepared. […] Chimeric receptors were prepared in which the amino terminal portion of the mouse glucocorticoid receptor (mGR) that includes the DNA binding domain was fused to the putative ligand binding domains of the nuclear receptor NER to form the respective chimeric receptor GR/NER. The cDNA sequences coding for amino acid residues Arg^155 and Glu^156 of the hNER receptor (Shinar et al., NER, a new member of a gene family encoding the steroid hormone nuclear receptor; GENE (in press) were convened to the Xho I restriction site, which site was later used for the ligation to the GR cDNA sequences that coded for the DNA binding domain. Thus, the amino acid residues Arg^155 and Glu^156 of the NER receptor were convened to amino acid residues Ser^155 and His^156.
# The chimera was employed in ligand dependent transactivation assays with the reporter gene MMTV-luciferase, in which the luciferase cDNA is transcribed under the control of the MMTV promoter.
# Similar hybrid receptors GR/NER, GR/NUC and GR/PPAR, in identical expression plasmid backgrounds were prepared essentially as described for the construction of the GR/mPPAR and GR/NUC chimeric receptors in Schmidt et al., "Identification of a new member of the steroid hormone receptor superfamily that is activated by a peroxisome proliferator and fatty acids," Mol. Endocrinol., 6(10):1634-41, 1992, and in Boie et al., "Enantioselective activation of the peroxisome proliferator-activated receptor", J. Biol. Chem. 268(8):5530-4, 1993.
# Briefly, the amino terminal portion of the mouse glucocorticoid receptor (mGR), that includes the DNA binding domain was fused to the putative ligand binding domains of the nuclear receptor NER, hNUC-I (Schmidt et al., 1992), mPPAR (Issenmann and Green, 1990) to form the respective chimeric receptors GR/NER, GR/NUC and GR/PPAR. The GR/NER chimeric receptor was constructed as described for the GR/NUC and GR/PPAR hybrid receptors (Schmidt et al., 1992; Boie et al). The cDNA sequences coding for amino acids Arg^155 and Glu^156 of the NER receptor were converted to the Xho I restriction site, that was later used for the ligation to the GR cDNA sequences that coded for the DNA binding domain. Thus, converting amino acid residues Arg^155 and Glu^156 of NER receptor to amino acid residues Ser^155 and His^156.
# [3] = system: Dopamine D1 receptor antagonist (SCH 23390) induced catalepsy; assay: SCH 23390 induced catalepsy (Bar method); format: in vivo, rat; details: for Catalepsy Duration: TOFA 0.4 mg/kg S.C. pretreatment
# Method: Rats were pretreated with 0.4 mg/kg TOFA or with carrier (S.C.). Twenty-four hours later, the rats were challenged with 0.5 mg/kg SCH23390, a Dopamine D1 antagonist, and the duration of catalepsy was monitored.
# (§1) Catalepsy was determined by a modification of the Bar method (Undie and Friedman, 1988). A steel bar, 1.1 cm in diameter and 50 cm long, was suspended at a height of 10 cm above the working surface. Three sides of the bench around the bar were walled off with brown cardboard, and the linings on the bench surface were selected to be of the same color with the cardboard walls. The animal's hind limbs were freely placed on the bench, the fail laid out to the back, and the forelimbs placed over the bar. The length of time a rat stayed up on the bar was noted up to a preset cut-off point of 120 s. The time was counted off upon observing any of the following actions: (1) the animal came off, placing its two forepaws on the bench, (2) the animal climbed onto or over the bar with both hind limbs, (3) the animal initiated locomotion along or around the bar. Subsequently, time readings were translated into scores by awarding a score of 1 for each successfully completed 5 s on the bar. For each observation time, catalepsy scores were averaged for all the animals in a group to give the Mean Score of the group at that observation time. Further, the scores for each animal at all the observation times were added to give the total score for that animal. The mean of this last group of numbers was called the Mean Total Score of the group.
# (§2) Catalepsy scores were analyzed by computer in accordance with the statistical procedures outlined by Winer, B. J.: Statistical principles in experimental design. McGraw-Hill, New York, pp. 10-428, 1971. Generally, for a given set of comparisons, observations were subjected to an appropriate analysis of variance followed by two-tailed Dunnett or Student's t-tests to detect differences between treatment groups.
# [4] = system: Muscarinic receptor agonist (Pilocarpine) induced catalepsy; assay: Pilocarpine induced catalepsy (Bar method); format: in vivo, rat; details: TOFA 0.4 mg/kg S.C. pretreatment
# Method: as §1, §2
# Rats were pretreated with 0.4 mg/kg TOFA or with carrier (S.C.). Twenty-four hours later, the rats were challenged with 16 mg/kg Pilocarpine, an agonist of the muscarinic cholinergic receptor, and the duration of catalepsy was monitored as described in Example 10.
# [5] = molecular target: T1, human NUCI receptor (Homo sapiens, UniProt Q03181); assay: Transcription assay, native NUC-I receptor co-transfected with MMTV-luciferase reporter
# T1 sequence (Q03181 1-441): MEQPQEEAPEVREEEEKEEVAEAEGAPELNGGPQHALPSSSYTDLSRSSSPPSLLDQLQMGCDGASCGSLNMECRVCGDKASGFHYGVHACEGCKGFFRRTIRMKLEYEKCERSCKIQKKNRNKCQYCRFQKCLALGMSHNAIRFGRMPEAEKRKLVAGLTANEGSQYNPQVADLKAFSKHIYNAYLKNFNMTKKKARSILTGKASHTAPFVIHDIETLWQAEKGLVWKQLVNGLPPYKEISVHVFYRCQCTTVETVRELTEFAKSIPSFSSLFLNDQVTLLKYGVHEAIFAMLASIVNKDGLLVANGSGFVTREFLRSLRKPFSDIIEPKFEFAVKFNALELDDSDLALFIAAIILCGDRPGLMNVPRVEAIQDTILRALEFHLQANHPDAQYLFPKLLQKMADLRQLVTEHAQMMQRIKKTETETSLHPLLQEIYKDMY
# Method: The reporter gene was the plasmid pJA358 in which the expression of firefly luciferase is regulated by two tandem repeats of the glucocorticoid hormone response element (GRE) linked to the MMTV promoter (Boie et al., 1993).
# as §3
# The transfected cells were treated with TOFA at 2 μM, 10 μM, 20 μM, and 50 μM and oleic acid at 50 μM, and 300 μM.
# [6] = read-out: Fold of stimulation NUC-I
structure (smiles),measurement,setting,value
"CCCCCCCCCCCCCCOc1ccc(C(=O)O)o1 [TOFA, 5-(tetradecyloxy)-2-furan carboxylic acid]","Expression of luciferase, MMTV-luciferase reporter gene only",[1],did not stimulate the expression of luciferase
same,Expression mediated by GR/NER,[2],stimulated expression
same,Fold of stimulation GR/NER,[2]; 2 μM,2.35 ± 0.09 fold
same,Fold of stimulation GR/NER,[2]; 10 μM,3.66 ± 0.40 fold
same,Fold of stimulation GR/NER,[2]; 20 μM,4.82 ± 0.28 fold
same,Catalepsy Duration,[3]; 24 h later 0.5 mg/kg SCH23390,75 ± 17.8 s
same,Catalepsy Duration,[3]; no challenge,0 s
same,Increase of duration of SCH 23390-induced catalepsy by TOFA pretreatment,"[3]; TOFA 0.4 mg/kg S.C., 24 h before 0.5 mg/kg SCH23390",at least 25 fold
same,Catalepsy Duration,[4]; 24 h later 16 mg/kg Pilocarpine,84.1 ± 9.6 s
same,Catalepsy Duration,[4]; no challenge,0 s
same,Expression of MMTV-luciferase reporter after co-transfection of native NUCI,[5],did not stimulate expression
same,fold induction at 2 µM,[5]; [6],0.83 ± 0.12
same,fold induction at 10 µM,[5]; [6],0.94 ± 0.08
same,fold induction at 50 µM,[5]; [6],1.27 ± 0.06
